Experiments:
[1] = Pharmacokinetics in plasma of free and encapsulated antibiotics in rabbits; type: in vivo, male rabbits of the "White New Zealand" type
Source text: In order to evaluate the influence of the encapsulation on the pharmacokinetics of two antibiotics, butirosin according to Example 6 and erythromycin according to Example 13, we carried out the determination in plasma as a function of time for these two antibiotics after administration in the free form and in the encapsulated form.
The injections are given subcutaneously and intravenously to male rabbits of the "White New Zealand" type weighing approximately 3 kg. The samples are taken at the lateral vein of the ear in amounts of 200 μl of blood/sample. The blood is immediately centrifuged at 8000 rpm for 15 min. The serum is withdrawn and stored at 4° C. until used.
(§1) Butirosin, like erythromycin, is determined by measuring the lysis zones (agar cylinders method) in an agar medium (bioMerieux) inoculated with 1000 cfu/ml of Bacillus subtilis and incubated at 37° C. for 18 hours. The bioMerieux agar medium consists of 6 g of bio-Gelytone, 3 g of yeast extract, 1.5 g of beef extract and 15 g of agar per 1 l of distilled water. The pH of the medium is adjusted to 9.
(§2) The serum samples are deposited in the wells made in the agar medium (30 μl/well). Reference solutions representing known amounts of antibiotic are also deposited in the dish.
The amounts injected are 1 ml containing 9 mg of butirosin in the free or encapsulated form.
4 ml of a physiological solution containing 5 mg of butirosin either in the free form or encapsulated in 100 mg of BVSM are injected. The solution is prepared from 8 g/l NaCl, 0.2 g/l KCl, 0.1 g/l anhydrous CaC12 (sic), 0.1 g/l MgCl2, 3.18 g/l Na2 HPO4 and 0.2 g/l KH2 PO4, adjusted to pH 7.4.
The injections are made slowly in the external vein of the ear after vasodilatation with warm water and disinfection with ethanol at […].
The amounts injected are 1 ml containing 15 mg of free or encapsulated erythromycin. For reasons of solubility, free erythromycin is dissolved in a water/ethanol (85:15) mixture.

Bacillus subtilis = experiment: Inhibition of Bacillus subtilis in agar medium / Petri dish (agar cylinders method); type: cell-based
Experimental: as §1, §2

[2] = Bacillus subtilis, 18 h, read-out: Diameter (standard range)

Row | Compound | diffusion in the plasma / plasma level ([1]; erythromycin) | diffusion in the plasma / plasma level ([1]; erythromycin, listed as Free erythromycin) | zone of inhibition at 10 µg/mL (Bacillus subtilis; [2]) | zone of inhibition at 25 µg/mL (Bacillus subtilis; [2]) | zone of inhibition at 100 µg/mL (Bacillus subtilis; [2]) | zone of inhibition at 250 µg/mL (Bacillus subtilis; [2]) | zone of inhibition at 1000 µg/mL (Bacillus subtilis; [2]) | diffusion into the plasma and elimination ([1]; rabbit, in vivo, iv) | diffusion in the plasma / plasma level ([1]; rabbit, in vivo, sc) | time after which eliminated ([1]; rabbit, in vivo, sc) | Diameter (standard range) (Bacillus subtilis; 0.5 μg/ml) | Diameter (standard range) (Bacillus subtilis; 1 μg/ml) | Diameter (standard range) (Bacillus subtilis; 2 μg/ml) | Diameter (standard range) (Bacillus subtilis; 5 μg/ml) | Diameter (standard range) (Bacillus subtilis; 10 μg/ml) | Diameter (standard range) (Bacillus subtilis; 20 μg/ml) | Diameter (standard range) (Bacillus subtilis; 50 μg/ml)
1 | CC[C@H]1OC(=O)[C@H](C)[C@@H](O[C@H]2C[C@@](C)(OC)[C@@H](O)[C@H](C)O2)[C@H](C)[C@@H](O[C@@H]2O[C@H](C)C[C@H](N(C)C)[C@H]2O)[C@](C)(O)C[C@@H](C)C(=O)[C@H](C)[C@@H](O)[C@]1(C)O [Erythromycin, erythromycin] | diffuses relatively slowly in the plasma | higher initial level to be achieved in the plasma than the encapsulated form | 26 mm | 29 mm | 31 mm | 33 mm | 37 mm | – | – | – | – | – | – | – | – | – | –
2 | butirosin | – | – | – | – | – | – | – | diffuses very rapidly into the plasma and is also eliminated very rapidly | diffuses very rapidly in the plasma | 6 h | 14 mm | 17 mm | 19 mm | 22 mm | 24 mm | 26 mm | 28 mm
